Assays:
Assay in all cases: relative viability (nuclei count vs DMSO), 5 days (fraction); higher = more cells survive
Ibrutinib + Pemetrexed = compound: C=CC(=O)N1CCC[C@@H](n2nc(-c3ccc(Oc4ccccc4)cc3)c3c(N)ncnc32)C1 [Ibrutinib] + Nc1nc2[nH]cc(CCc3ccc(C(=O)N[C@@H](CCC(=O)O)C(=O)O)cc3)c2c(=O)[nH]1 [Pemetrexed] (partner 0.2 µM)
Procedure, shortened: (§1)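 Lung cancer cell lines, seeded in 1536-well plates, were treated the following day by pin tool with a single drug or with five library-drug doses (not always all listed) in √10 steps on top of a fixed anchor-drug dose. Cells were fixed and nuclei stained in one step after 5 days, and nuclei were counted. Relative viability is the nuclei count for treated wells divided by that for vehicle wells, reported as medians of duplicate plates.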

PAC-1 + Alpelisib = compound: C=CCc1cccc(/C=N/NC(=O)CN2CCN(Cc3ccccc3)CC2)c1O [PAC-1] + Cc1nc(NC(=O)N2CCC[C@H]2C(N)=O)sc1-c1ccnc(C(C)(C)C(F)(F)F)c1 [Alpelisib] (partner 2 µM)
Procedure, shortened: as §1

BMX-IN-1 + Luminespib = compound: C=CC(=O)Nc1cc(-n2c(=O)ccc3cnc4ccc(-c5ccc(NS(C)(=O)=O)cc5)cc4c32)ccc1C [BMX-IN-1] + CCNC(=O)c1noc(-c2cc(C(C)C)c(O)cc2O)c1-c1ccc(CN2CCOCC2)cc1 [Luminespib] (partner 0.01 µM)
Procedure, shortened: as §1

Ibrutinib + Olaparib = compound: C=CC(=O)N1CCC[C@@H](n2nc(-c3ccc(Oc4ccccc4)cc3)c3c(N)ncnc32)C1 [Ibrutinib] + O=C(c1cc(Cc2n[nH]c(=O)c3ccccc23)ccc1F)N1CCN(C(=O)C2CC2)CC1 [Olaparib] (partner 8 µM)
Procedure, shortened: as §1

SK-MES-1
relative viability (Ibrutinib + Pemetrexed; first compound 0.005 µM): 1.01 | relative viability (Ibrutinib + Pemetrexed; first compound 0.01581 µM): 0.951 | relative viability (Ibrutinib + Pemetrexed; first compound 0.05 µM): 0.905 | relative viability (Ibrutinib + Pemetrexed; first compound 0.1581 µM): 1.14 | relative viability (Ibrutinib + Pemetrexed; first compound 0.5 µM): 0.752 | relative viability (PAC-1 + Alpelisib; first compound 0.02 µM): 0.845 | relative viability (PAC-1 + Alpelisib; first compound 0.06325 µM): 0.908 | relative viability (PAC-1 + Alpelisib; first compound 0.2 µM): 0.878 | relative viability (PAC-1 + Alpelisib; first compound 2 µM): 0.955 | relative viability (BMX-IN-1 + Luminespib; first compound 0.02 µM): 0.831 | relative viability (BMX-IN-1 + Luminespib; first compound 0.2 µM): 0.879 | relative viability (BMX-IN-1 + Luminespib; first compound 0.6325 µM): 0.835 | relative viability (BMX-IN-1 + Luminespib; first compound 2 µM): 0.921 | relative viability (Ibrutinib + Olaparib; first compound 0.005 µM): 0.748 | relative viability (Ibrutinib + Olaparib; first compound 0.01581 µM): 0.639 | relative viability (Ibrutinib + Olaparib; first compound 0.05 µM): 0.652 | relative viability (Ibrutinib + Olaparib; first compound 0.1581 µM): 0.879 | relative viability (Ibrutinib + Olaparib; first compound 0.5 µM): 0.461
